Usually IC50 stands for the concentration that gives 50% inhibition. Higher therefore signals weaker potency in that assay.

Experimental findings from patent US8952150B2, “Prostaglandin transporter inhibitors and uses thereof” (Albert Einstein College of Medicine of Yeshiva University, priority 2009, dated 2015) are described below.

One assay has as its target rat PGT (Rattus norvegicus (Rat), UniProt Q00910). The assay can be described thus: [3H]PGE2 uptake inhibition in MDCK cells stably transfected with rat PGT (percent inhibition and IC50). The assay is classed as cell-based. To be noted: for Inh (% of Ctl) 0.5 μM: 0.5 μM compound; for Inh (% of Ctl) 0.5 μM / Inh (% of Ctl) 0.1 μM / Inh (% of Ctl) 1 μM: inhibition of [3H]PGE2 uptake; for IC50: [3H]PGE2 uptake, MDCK cells stably transfected with rat PGT; for Inh (% of Ctl) 0.1 μM: 0.1 μM compound; for Inh (% of Ctl) 1 μM: 1 μM compound. A digest of the protocol:
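Rat PGT-transfected MDCK cells, on day 4 after seeding, took up [3H]PGE2 in Waymouth buffer at room temperature, with compound (EtOH stock diluted in buffer) added immediately before tracer. Intracellular radioactivity counted after lysis; percent inhibition versus vehicle, IC50 by fitting y=m1−m1*(m0/(m2+m0)).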

The next assay deals with full-thickness wounds. The assay can be described thus: Wound healing: topical application to full-thickness wounds on the back of mice. Type of assay: in vivo. To be noted: 5 mm full-thickness wounds. On the procedure: FIG. 1A-1B. Prostaglandin transporter (PGT) inhibitors accelerate wound healing. […] B. Averaged wound areas of 4 mice, each of them had 2 wounds and received topically applied vehicle Veh1 (2% DMSO+2% cremophor in water) on one wound and T26A on the other. On the wounds of a separate group of 4 mice, vehicle Veh2 (2% EtOH) was applied to one wound and 200 μM PGE2 was applied to the other.
Studies were conducted using compound T26A (Table 1). Two full-thickness wounds with diameter of 5 mm were created on the back of mice symmetrically under the shoulder blades. 50 μL vehicle (2% DMSO+2% cremophor in water) was applied to one wound (FIG. 1A, top panel), and that of 2 mM T26A was applied to the other (FIG. 1A, bottom panel), immediately after surgery and every other day afterwards. […] On the wounds of a separate group of 4 mice, vehicle Veh2 (2% EtOH, yellow) was applied to one wound and 200 μM PGE2 (green) was applied to the other. Results were statistically significant (p<0.05, T26A vs. vehicle).

Turning to `[N-]=[N+]=NCCOCCOCCNC(=O)c1ccc(Nc2nc(NCCOCCOCCNC(=O)c3ccccc3)nc(Nc3ccc(O)cc3)n2)cc1` [T26A, reference compound], on rat PGT, the “Inh (% of Ctl) 0.5 μM” value was 72.65 % of Ctl and the IC50 stood at 378 nM. Moreover, in the assay on full-thickness wounds (2 mM T26A applied topically), the “vascularization and blood flow in the wound” value was “increased vascularization and blood flow in the wound”. In the assay with full-thickness wounds (50 μL of 2 mM T26A topically immediately after surgery and every other day, 10 day period, vs vehicle (2% DMSO+2% cremophor in water), p<0.05 T26A vs. vehicle), the “wound healing (wound area)” value was “accelerates wound healing”.

For the compound `O=C(NCc1ccccc1)c1ccc(Nc2nc(NCCOCCNCc3ccccc3)nc(Nc3ccc(O)cc3)n2)cc1` [compound 141], at rat PGT, the “Inh (% of Ctl) 0.1 μM” value is reported as 12.7 % of Ctl, the “Inh (% of Ctl) 0.5 μM” value was 22.0 % of Ctl and the “Inh (% of Ctl) 1 μM” value is reported as 43.5 % of Ctl.

Turning to `O=C(NCCOCCOCCNc1nc(Nc2ccc(C(=O)NCc3ccc(F)cc3)cc2)nc(Nc2ccc3[nH]cnc3c2)n1)c1ccccc1` [compound 142], on rat PGT, the “Inh (% of Ctl) 0.1 μM” value is given as 8.4 % of Ctl, the “Inh (% of Ctl) 0.5 μM” value is listed as 20.1 % of Ctl and the “Inh (% of Ctl) 1 μM” value was 39.2 % of Ctl.

`O=C(NCCOCCOCCNc1nc(Nc2ccc(C(=O)NCc3ccc(F)cc3)cc2)nc(Nc2ccc(O)c(F)c2)n1)c1ccccc1` [compound 143]: at rat PGT, the “Inh (% of Ctl) 0.1 μM” value is on record as 33.7 % of Ctl, the “Inh (% of Ctl) 0.5 μM” value is listed as 57.8 % of Ctl, the “Inh (% of Ctl) 1 μM” value is 69.5 % of Ctl and the IC50 came to 16.5 nM.

Turning to `COC(=O)c1cc(Nc2nc(NCCOCCOCCNC(=O)c3ccccc3)nc(Nc3ccc(C(=O)NCc4ccc(F)cc4)cc3)n2)ccc1O` [compound 144], at rat PGT, the “Inh (% of Ctl) 0.1 μM” value is listed as 3.4 % of Ctl, the “Inh (% of Ctl) 0.5 μM” value is recorded as 5.8 % of Ctl and the “Inh (% of Ctl) 1 μM” value is recorded as 10.8 % of Ctl.

As to `O=C(NCc1ccc(F)cc1)c1ccc(Nc2nc(Nc3ccc(O)cc3)nc(Nc3ccc(O)cc3)n2)cc1` [compound 145], at rat PGT, the “Inh (% of Ctl) 0.1 μM” value is 7.1 % of Ctl, the “Inh (% of Ctl) 0.5 μM” value is recorded as 3.1 % of Ctl and the “Inh (% of Ctl) 1 μM” value is 6.9 % of Ctl.

Consider `O=C(NCCOCCOCCNc1nc(Nc2ccc(C(=O)NCc3ccc(F)cc3)cc2)nc(Nc2ccc(O)c(C(=O)O)c2)n1)c1ccccc1` [compound 146], for which, on rat PGT, the “Inh (% of Ctl) 0.1 μM” value is on record as 28.5 % of Ctl, the “Inh (% of Ctl) 0.5 μM” value is reported as 59.8 % of Ctl, the “Inh (% of Ctl) 1 μM” value is 70.4 % of Ctl and the IC50 was 44.8 nM.

For the compound `O=C(NCCOCCNc1nc(Nc2ccc(O)cc2)nc(Nc2ccc(C(=O)NCc3ccc(F)cc3)cc2)n1)c1ccccc1` [compound 147], on rat PGT, the “Inh (% of Ctl) 0.1 μM” value is 44.5 % of Ctl, the “Inh (% of Ctl) 0.5 μM” value is recorded as 70.2 % of Ctl, the “Inh (% of Ctl) 1 μM” value was 79.5 % of Ctl and half-maximal inhibition (IC50) required 31.7 nM.

With `O=C(NCc1ccc(F)cc1)c1ccc(Nc2nc(Nc3ccc(O)cc3)nc(Nc3ccc(C(=O)NCc4ccc(F)cc4)cc3)n2)cc1` [compound 148], on rat PGT, the “Inh (% of Ctl) 0.1 μM” value is on record as 8.4 % of Ctl, the “Inh (% of Ctl) 0.5 μM” value is on record as 12.9 % of Ctl and the “Inh (% of Ctl) 1 μM” value is 20.7 % of Ctl.

As to `O=C(NCc1ccc(F)cc1)c1ccc(Nc2nc(Nc3ccc(O)cc3)nc(Nc3ccc(CNCc4ccccc4)cc3)n2)cc1` [compound 149], at rat PGT, the “Inh (% of Ctl) 0.1 μM” value is recorded as 3.8 % of Ctl, the “Inh (% of Ctl) 0.5 μM” value was 9.1 % of Ctl and the “Inh (% of Ctl) 1 μM” value is listed as 17.6 % of Ctl.

As to `O=C(O)c1cccc(Nc2nc(NCCOCCOCCNC(=O)c3ccccc3)nc(Nc3ccc(C(=O)NCc4ccc(F)cc4)cc3)n2)c1` [compound 150], on rat PGT, the “Inh (% of Ctl) 0.1 μM” value is recorded as 4.2 % of Ctl, the “Inh (% of Ctl) 0.5 μM” value is recorded as 14.3 % of Ctl and the “Inh (% of Ctl) 1 μM” value was 23.9 % of Ctl.

`O=C(NCCOCCOCCNc1nc(NCCOCCOCCNC(=O)c2ccccc2)nc(Nc2ccc(O)cc2)n1)c1ccccc1` [compound 151]: on rat PGT, the “Inh (% of Ctl) 0.5 μM” value is 0.7 % of Ctl and the “Inh (% of Ctl) 1 μM” value is 8.4 % of Ctl.
